Laboratory results as given in US6175013A, “Imidazolinyl tachykinin receptor antagonists” (Eli Lilly and Company, priority 1994, dated 2001).

Legend:
human NK-2 receptor = target: T1, human NK-2 receptor (Homo sapiens, UniProt P21452); assay: NK-2 Receptor Binding Assay ([125I]iodohistidyl-neurokinin A, CHO-hNK-2R cell membranes); details: CHO-hNK-2R membranes, 20 pM [125I]iodohistidyl-neurokinin A; for IC50: 1 hr room temperature, read-out: IC50, inhibition of binding of neurokinin A
T1 construct: expressed in transfected cells; host or cells: CHO-hNK-2R cells (CHO-derived)
T1 sequence (P21452 1-398): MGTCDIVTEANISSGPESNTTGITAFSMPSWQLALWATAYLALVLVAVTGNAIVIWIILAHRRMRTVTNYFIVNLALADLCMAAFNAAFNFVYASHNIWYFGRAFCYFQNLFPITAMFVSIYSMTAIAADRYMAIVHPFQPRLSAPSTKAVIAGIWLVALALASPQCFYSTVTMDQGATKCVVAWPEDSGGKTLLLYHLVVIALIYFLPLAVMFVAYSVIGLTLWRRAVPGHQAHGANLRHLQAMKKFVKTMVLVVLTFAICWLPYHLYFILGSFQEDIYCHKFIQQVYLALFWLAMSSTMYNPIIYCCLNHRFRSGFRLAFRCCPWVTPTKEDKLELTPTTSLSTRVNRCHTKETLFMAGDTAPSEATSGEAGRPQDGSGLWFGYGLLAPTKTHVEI
Method: (§1) The biological activity of the compounds of the present invention was evaluated employing an initial screening assay which rapidly and accurately measured the binding of the tested compound to known NK-1 and NK-2 receptor sites. Assays useful for evaluating tachykinin receptor antagonists are well known in the art. See, e.g., J. Jukic, et al., Life Sciences, 49:1463-1469 (1991); N. Kucharczyk, et al., Journal of Medicinal Chemistry, 36:1654-1661 (1993); N. Rouissi, et al., Biochemical and Bioohysical Research Communications, 176:894-901 (1991).
NK-2 Receptor Binding Assay
The CHO-hNK-2R cells, a CHO-derived cell line transformed with the human NK-2 receptor, expressing about 400,000 such receptors per cell, were grown in 75 cm^2 flasks or roller bottles in minimal essential medium (alpha modification) with 10% fetal bovine serum. The gene sequence of the human NK-2 receptor is given in N. P. Gerard, et al., Journal of Biological Chemistry, 65:20455-20462 (1990).
For preparation of membranes, 30 confluent roller bottle cultures were dissociated by washing each roller bottle with 10 ml of Dulbecco's phosphate buffered saline (PBS) without calcium and magnesium, followed by addition of 10 ml of enzyme-free cell dissociation solution (PBS-based, from Specialty Media, Inc.). After an additional 15 minutes, the dissociated cells were pooled and centrifuged at 1,000 RPM for 10 minutes in a clinical centrifuge. Membranes were prepared by homogenization of the cell pellets in 300 ml 50 mM Tris buffer, pH 7.4 with a Tekmar® homogenizer for 10-15 seconds, followed by centrifugation at 12,000 RPM (20,000×g) for 30 minutes using a Beckman JA-14® rotor. The pellets were washed once using the above procedure. and the final pellets were resuspended in 100-120 ml 50 mM Tris buffer, pH 7.4, and 4 ml aliquots stored frozen at -70° C. The protein concentration of this preparation was 2 mg/ml.
For the receptor binding assay, one 4-ml aliquot of the CHO-hNK-2R membrane preparation was suspended in 40 ml of assay buffer containing 50 mM Tris, pH 7.4, 3 mM manganese chloride, 0.02% bovine serum albumin (BSA) and 4 μg/ml chymostatin. A 200 μl volume of the homogenate (40 μg protein) was used per sample. The radioactive ligand was [^125 I]iodohistidyl-neurokinin A (New England Nuclear, NEX-252), 2200 Ci/mmol. […] Non-specific binding was determined using 1 μM eledoisin. […]
All samples and standards were added to the incubation in 10 μl dimethylsulfoxide (DMSO) for screening (single dose) or in 5μl DMSO for IC50 determinations. […] The filter was washed 3 times with approximately 3 ml of cold 50 mM Tris buffer, pH 7.7, The filter circles were then punched into 12×75 mn polystyrene tubes and counted in a gamma counter. […]

NK-1 receptor = target: T2, NK-1 receptor (Homo sapiens, UniProt P25103); assay: NK-1 Receptor Binding Assay (125I-substance P, IM9 cells); details: 20 pM 125I-labeled substance P, 45 minutes at 4° C., may be average of more than one experiment, read-out: IC50, inhibition of binding of substance P
T2 construct: an aliquot of IM9 cells; endogenous in cells; host or cells: IM9 cells
Method: as §1
NK-1 Receptor Binding Assay
Radioreceptor binding assays were performed using a derivative of a previously published protocol. D. G. Payan, et al., Journal of Immunology, 133:3260-3265 (1984). In this assay an aliquot of IM9 cells (1×10^6 cells/tube in […] medium supplemented with 10% fetal calf serum) was incubated with 20 pM ^125 I-labeled substance P in the presence of increasing competitor concentrations for 45 minutes at 4° C.
The IM9 cell line is a well-characterized cell line which is readily available to the public. See, e.g., Annals of the New York Academy of Science, 190: 221-234 (1972); Nature (London), 251:443-444 (1974); Proceedings of the National Academy of Sciences (USA), 71:84-88 (1974). These cells were routinely cultured in RPMI 1640 supplemented with 50 gg/ml gentamicin sulfate and 10% fetal calf serum.
The reaction was terminated by filtration through a glass fiber filter harvesting system using filters previously soaked for 20 minutes in 0.1% polyethylenimine. Specific binding of labeled substance P was determined in the presence of 20 nM unlabeled ligand.
Column 1 provides the example number of the test antagonist compound. The second column depicts the results of the competition assays, detailing the concentration of the test compound (in micromolar quantities) which inhibits fifty percent of the binding of substance P (IC50). Certain values may represent the average of more than one experiment.

T2 sequence (P25103 whole entry): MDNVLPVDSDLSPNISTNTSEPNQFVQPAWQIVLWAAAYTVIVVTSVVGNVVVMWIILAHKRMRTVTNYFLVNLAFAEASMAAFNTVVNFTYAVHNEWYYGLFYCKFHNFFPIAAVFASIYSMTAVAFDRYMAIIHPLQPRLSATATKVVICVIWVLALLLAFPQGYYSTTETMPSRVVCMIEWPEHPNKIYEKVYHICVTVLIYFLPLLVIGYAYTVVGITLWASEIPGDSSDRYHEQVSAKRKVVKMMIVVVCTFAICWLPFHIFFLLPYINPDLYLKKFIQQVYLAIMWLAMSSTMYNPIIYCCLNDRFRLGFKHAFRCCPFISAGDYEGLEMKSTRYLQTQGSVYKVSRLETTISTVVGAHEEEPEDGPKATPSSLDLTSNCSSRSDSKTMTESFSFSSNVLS

SMILES	IC50 (human NK-2 receptor) [nM]	IC50 (NK-1 receptor) [nM]	inhibition at 10 µM (human NK-2 receptor; at 10 μM, read-out: percent inhibition of neurokinin A binding) [%]
COc1ccccc1CN1CC(c2ccccc2)N=C1C (centres unmarked) [Example 1, 1-(2-methoxybenzyl)-2-methyl-4-phenyl-2-imidazoline]	16000	180	–
COc1ccccc1CN1CC(Cc2c[nH]c3ccccc23)N=C1CN1CCN(c2ccccc2)CC1 (centres unmarked) [Example 2, 1-(2-methoxybenzyl)-2-[(4-phenyl-1-piperazinyl)methyl]-4-(1H-indol-3-ylmethyl)-2-imidazoline]	470	120	–
COc1ccccc1CN1CC(C)(Cc2c[nH]c3ccccc23)N=C1C (centres unmarked) [Example 3, 1-(2-methoxybenzyl)-2,4-dimethyl-4-(1H-indol-3-ylmethyl)-2-imidazoline]	9100	560	–
COc1ccccc1CN1CC(Cc2ccccc2)N=C1C (centres unmarked) [Example 4, 1-(2-methoxybenzyl)-2-methyl-4-benzyl-2-imidazoline]	–	140	21
